Results: paper PMC5878144 (Journal of controlled release : official journal of the …, 2018)
Read-outs that look alike come from different tables or passages of the source.

Experiments:
[1] = cited from earlier work
[2] = type: in vivo, Macaca nemestrina
[3] = Equilibrium dialysis of DcNP-associated versus free drug; type: physicochemical; conditions: TLC-ART101, equilibrium dialysis, 6-8 kDa cut-off membrane
[4] = Free ARV compartmental models; type: in vivo, Macaca nemestrina; conditions: for CL/F: calculated from population PK parameters; for half-life / k el / Vd/F: male, monkey, sc
in vivo = conditions: macaque, sc
[5] = TLC-ART101 mechanism-based pharmacokinetic; conditions: for k21, lymphatic entry rate constant, fast pathway / k31, lymphatic entry rate constant, intermediate pathway / k41, lymphatic entry rate constant, slow pathway / tlag2, lymphatic transit lag time, intermediate pathway / tlag1, lymphatic transit lag time, fast pathway / V5_DcNP, apparent volume of distribution of DcNP-associated ARV / k75, rate constant for release of free ARV from DcNPs in plasma / tlag3, lymphatic transit lag time, slow pathway: TLC-ART101; for k21, lymphatic entry rate constant, fast pathway / k31, lymphatic entry rate constant, intermediate pathway / k41, lymphatic entry rate constant, slow pathway: fixed after manual adjustment
[6] = rat, in vivo; cited from earlier work
[7] = Free formulation, single SC dose, macaques, geometric mean (%CV), N=3
[8] = TLC-ART101, single SC dose, macaques, geometric mean (%CV), N=4
[9] = Free formulation, parameter value (%CV)
[10] = parameter value (%CV), listed as TLC-ART101 Ritonavir
[11] = TLC-ART101 model, free submodel, parameter value (%CV)
[12] = parameter value (%CV), listed as TLC-ART101 Tenofovir
[13] = TLC-ART101 model, free submodel

Question: Which “Terminal t1/2” value ([1]; monkey, in vivo, sc) does the source give for `Cc1cccc(C)c1OCC(=O)N[C@@H](Cc1ccccc1)[C@@H](O)C[C@H](Cc1ccccc1)NC(=O)[C@H](C(C)C)N1CCCNC1=O` [Lopinavir] here?
Answer: The value was 476.94 (173) hr.

Question: What about the “CL/F, apparent total clearance” value [2, 7] of the same molecule?
Answer: Its value is 4.64 (14) L/[hr•kg].

Question: What about the “Terminal t1/2” value ([2]; Free formulation, single SC dose, macaques, geometric mean (%CV), N=3, listed as Lopinavir (LPV)) of the same molecule?
Answer: Its value is 8.65 (28) hr.

Question: What about the “CL/F, apparent total clearance” value [2, 8] of the same molecule?
Answer: The value was 0.85 (85) L/[hr•kg].

Question: What about the AUC(0-t) ([2]; male, monkey, plasma, sc) of the same molecule?
Answer: Its AUC(0-t) is 4350 ng·h/mL.

Question: And the “mean fraction of DcNP-associated drug” value [3]?
Answer: The value was 92.2%.

Question: What about the CL/F ([4]; Free formulation, listed as Free Lopinavir) of the same molecule?
Answer: The CL/F was 4.24 L/[hr•kg].

Question: And the CL/F ([4]; Free formulation, listed as LPV)?
Answer: Its CL/F is about 4 L/[hr•kg].

Question: What about the “k21, absorption rate constant” value [4, 9] of the same molecule?
Answer: Its value is 0.7120 (20) 1/hr.

Question: What about the half-life ([4]; plasma) of the same molecule?
Answer: Its half-life is 531 min.

Question: And the k el ([4]; plasma)?
Answer: Its k el is 2.18e-05 s⁻¹.

Question: Which “AUC0-336h, area under the plasma drug concentration-time curve” value [1, 8] does the source give for `CC(C)c1nc(CN(C)C(=O)N[C@H](C(=O)N[C@@H](Cc2ccccc2)C[C@H](O)[C@H](Cc2ccccc2)NC(=O)OCc2cncs2)C(C)C)cs1` [Ritonavir] here?
Answer: Its value is 4.80 (57) hr•μg/mL.

Question: What about the “Terminal t1/2” value [1, 8] of the same molecule?
Answer: Its value is 44.06 (46) hr.

Question: What about the “CL/F, apparent total clearance” value [2, 7] of the same molecule?
Answer: The value was 4.23 (15) L/[hr•kg].

Question: What about the “Terminal t1/2” value ([2]; Free formulation, single SC dose, macaques, geometric mean (%CV), N=3, listed as Ritonavir (RTV)) of the same molecule?
Answer: The value was 7.99 (38) hr.

Question: And the “CL/F, apparent total clearance” value [2, 8]?
Answer: The value was 1.43 (56) L/[hr•kg].

Question: What about the AUC(0-t) ([2]; male, monkey, plasma, sc) of the same molecule?
Answer: Its AUC(0-t) is 1370 ng·h/mL.

Question: What about the “mean fraction of DcNP-associated drug” value [3] of the same molecule?
Answer: The value was 91.1%.

Question: And the Kp (in vivo)?
Answer: The Kp was 7.4.

Question: What about the CL/F ([4]; Free formulation, listed as Free Ritonavir) of the same molecule?
Answer: Its CL/F is 3.90 L/[hr•kg].

Question: And the CL/F ([4]; Free formulation, listed as RTV)?
Answer: The CL/F was about 4 L/[hr•kg].

Question: And the “k21, absorption rate constant” value [4, 9]?
Answer: Its value is 0.6242 (29) 1/hr.

Question: And the Vd/F ([4]; plasma)?
Answer: Its Vd/F is 42.4 L/kg.

Question: And the half-life ([4]; plasma)?
Answer: Its half-life is 452 min.

Question: And the k el ([4]; plasma)?
Answer: Its k el is 2.55e-05 s⁻¹.

Question: And the “k21, lymphatic entry rate constant, fast pathway” value [5]?
Answer: Its value is 0.2361 (-) 1/hr.

Question: What about the “k31, lymphatic entry rate constant, intermediate pathway” value [5] of the same molecule?
Answer: Its value is 0.1881 (-) 1/hr.

Question: And the “k41, lymphatic entry rate constant, slow pathway” value [5]?
Answer: The value was 0.0198 (-) 1/hr.

Question: What about the “tlag2, lymphatic transit lag time, intermediate pathway” value ([5]; parameter value (%CV)) of the same molecule?
Answer: Its value is 38.83 (13) hr.

Question: And the “tlag1, lymphatic transit lag time, fast pathway” value (“tlag1 … fast pathway” for short) ([5]; parameter value (%CV), listed as RTV)?
Answer: Its value is about 2 h.

Question: What about the “V5_DcNP, apparent volume of distribution of DcNP-associated ARV” value [5, 10] of the same molecule?
Answer: The value was 10.09 (27) L/kg.

Question: And the “k75, rate constant for release of free ARV from DcNPs in plasma” value [5, 10]?
Answer: The value was 0.4336 (5) 1/hr.

Question: What about the “tlag1 … fast pathway” value [5, 10] of the same molecule?
Answer: Its value is 2.13 (51) hr.

Question: What about the “tlag3, lymphatic transit lag time, slow pathway” value [5, 10] of the same molecule?
Answer: The value was 181.87 (11) hr.

Question: And the V7_Free [5, 11]?
Answer: Its V7_Free is 67.94 (3) L/kg.

Question: And the “k07, clearance rate constant of free ARV from central compartment” value [5, 11]?
Answer: The value was 0.0962 (4) 1/hr.

Question: For `C[C@H](Cn1cnc2c(N)ncnc21)OCP(=O)(O)O` [Tenofovir], which “Terminal t1/2” value [1, 8] is on record?
Answer: Its value is 65.33 (11) hr.

Question: And the “AUC0-336h, area under the plasma drug concentration-time curve” value ([1]; in vivo, sc)?
Answer: The value was 416.55 (15) hr•μg/mL.

Question: And the “CL/F, apparent total clearance” value [2, 7]?
Answer: Its value is 0.72 (4) L/[hr•kg].

Question: And the “MBRT0-24h, mean body residence time” value [2, 7]?
Answer: Its value is 2.61 (12) hr.

Question: And the “CL/F, apparent total clearance” value [2, 8]?
Answer: Its value is 0.02 (15) L/[hr•kg].

Question: And the “MBRT0-336h, mean body residence time” value [2, 8]?
Answer: The value was 102.68 (7) hr.

Question: What about the “MBRT0-24h fold shorter than those of free LPV and RTV” value ([2]; free formulation) of the same molecule?
Answer: Its value is about 5 fold.

Question: What about the “plasma level as % of peak” value ([2]; free formulation, by 10 hr) of the same molecule?
Answer: The value was about 1%.

Question: And the AUC(0-t) ([2]; male, monkey, plasma, sc)?
Answer: The AUC(0-t) was 14400 ng·h/mL.

Question: And the Tmax ([2]; male, monkey, plasma, sc)?
Answer: Its Tmax is about 1 h.

Question: What about the half-life ([2]; male, monkey, plasma, sc, Terminal t1/2, Free formulation, single SC dose, macaques, geometric mean (%CV), N=3) of the same molecule?
Answer: The half-life was 481 min.

Question: And the “mean fraction of DcNP-associated drug” value [3]?
Answer: Its value is 11.2%.

Question: And the Kp (in vivo)?
Answer: Its Kp is 3.01.

Question: What about the “k23, peripheral to central exchange rate constant” value ([4]; Free formulation, 2CM) of the same molecule?
Answer: Its value is 0.0738 (-) 1/hr.

Question: And the Vβ/F ([4]; Free formulation, 2CM, secondary parameter)?
Answer: The Vβ/F was 8.65 L/kg.

Question: And the “k32, central to peripheral exchange rate constant” value ([4]; Free formulation, 2CM, parameter value (%CV))?
Answer: The value was 0.0298 (0) 1/hr.

Question: And the CL/F ([4]; Free formulation)?
Answer: The CL/F was 0.60 L/[hr•kg].

Question: And the “k21, absorption rate constant” value [4, 9]?
Answer: Its value is 2.3423 (38) 1/hr.

Question: What about the k el ([4]; in vivo) of the same molecule?
Answer: Its k el is 0.000164 s⁻¹.

Question: What about the Vd/F ([4]; in vivo, 10.6 mg/kg) of the same molecule?
Answer: Its Vd/F is 1.44 L/kg.

Question: And the “k21, lymphatic entry rate constant, fast pathway” value [5]?
Answer: Its value is 0.1300 (-) 1/hr.

Question: What about the “k31, lymphatic entry rate constant, intermediate pathway” value [5] of the same molecule?
Answer: Its value is 0.1588 (-) 1/hr.

Question: What about the “k41, lymphatic entry rate constant, slow pathway” value [5] of the same molecule?
Answer: The value was 0.1779 (-) 1/hr.

Question: What about the “V5_DcNP, apparent volume of distribution of DcNP-associated ARV” value ([5]; parameter value (%CV)) of the same molecule?
Answer: Its value is 0.17 (22) L/kg.

Question: And the “tlag2, lymphatic transit lag time, intermediate pathway” value ([5]; parameter value (%CV))?
Answer: Its value is 24.04 (19) hr.

Question: What about the “tlag1 … fast pathway” value ([5]; parameter value (%CV), listed as TFV) of the same molecule?
Answer: Its value is 0.1 h.

Question: And the “k75, rate constant for release of free ARV from DcNPs in plasma” value [5, 12]?
Answer: Its value is 0.0164 (15) 1/hr.

Question: What about the “tlag1 … fast pathway” value [5, 12] of the same molecule?
Answer: The value was 0.10 (-) hr.

Question: And the “tlag3, lymphatic transit lag time, slow pathway” value [5, 12]?
Answer: Its value is 122.06 (3) hr.

Question: And the “k76, absorption rate constant of free ARV from SC site” value [5, 13]?
Answer: The value was 1.4201 (-) 1/hr.

Question: And the k87 [5, 13]?
Answer: Its k87 is 0.0298 (-) 1/hr.

Question: What about the V7_Free [5, 11] of the same molecule?
Answer: Its V7_Free is 1.66 (18) L/kg.

Question: And the “k07, clearance rate constant of free ARV from central compartment” value [5, 11]?
Answer: Its value is 0.5824 (2) 1/hr.

Question: And the k78 [5, 11]?
Answer: Its k78 is 0.0738 (0) 1/hr.

Question: For `COc1cccc2c1C(=O)c1c(O)c3c(c(O)c1C2=O)C[C@@](O)(C(=O)CO)C[C@@H]3O[C@H]1C[C@H](N)[C@H](O)[C@H](C)O1` [doxorubicin], which “% of SC dose recovered in the blood” value [6] is on record?
Answer: The value was 64-74%.

Question: What about the “% of SC dose recovered in the lymph” value [6] of the same molecule?
Answer: The value was 0.063-2%.

Question: What does the source list for `CN(Cc1cnc2nc(N)nc(N)c2n1)c1ccc(C(=O)N[C@@H](CCC(=O)O)C(=O)O)cc1` [methotrexate]?
Answer: % of SC dose recovered in the blood [6]: 64-74%; % of SC dose recovered in the lymph [6]: 0.063-2%
